Assay results published in the NIST ThermoML archive (doi:10.1021/acs.jced.6b00210).
Numbers after ± are expanded uncertainties.

Assay: xn = mol fraction of the nth substance listed
Settings: 100 kPa, Liquid; for viscosity: Concentric cylinders viscometry; for mass density: Vibrating tube method

Nc1ccccc1 [aniline] + CC(C)O
Settings	mass density [kg/m3]	viscosity [mPa·s]
293.15 K, x1 = 0.0813	809.7 ± 0.2	2.291 ± 0.28
293.15 K, x1 = 0.1599	832 ± 0.2	2.176 ± 0.26
293.15 K, x1 = 0.2396	853.7 ± 0.2	2.12 ± 0.26
293.15 K, x1 = 0.349	882 ± 0.2	2.1 ± 0.25
293.15 K, x1 = 0.4402	904.3 ± 0.2	2.17 ± 0.26
293.15 K, x1 = 0.5598	932.1 ± 0.2	2.33 ± 0.28
293.15 K, x1 = 0.6501	952 ± 0.3	2.54 ± 0.31
293.15 K, x1 = 0.74	971 ± 0.3	2.81 ± 0.34
293.15 K, x1 = 0.8499	993.2 ± 0.3	3.31 ± 0.4
293.15 K, x1 = 0.9402	1010.6 ± 0.3	3.93 ± 0.47
293.15 K, x1 = 1	1021.7 ± 0.3	4.37 ± 0.53
298.15 K, x1 = 0.0813	805.3 ± 0.2	1.963 ± 0.24
298.15 K, x1 = 0.1599	827.5 ± 0.2	1.86 ± 0.22
298.15 K, x1 = 0.2396	849.2 ± 0.2	1.8 ± 0.22
298.15 K, x1 = 0.349	877.4 ± 0.2	1.78 ± 0.21
298.15 K, x1 = 0.4402	899.7 ± 0.2	1.84 ± 0.22
298.15 K, x1 = 0.5598	927.6 ± 0.2	1.98 ± 0.24
298.15 K, x1 = 0.6501	947.5 ± 0.3	2.16 ± 0.26
298.15 K, x1 = 0.74	966.5 ± 0.3	2.39 ± 0.29
298.15 K, x1 = 0.8499	988.8 ± 0.3	2.84 ± 0.34
298.15 K, x1 = 0.9402	1006.2 ± 0.3	3.39 ± 0.41
298.15 K, x1 = 1	1017.4 ± 0.3	3.8 ± 0.46
303.15 K, x1 = 0.0813	800.8 ± 0.2	1.651 ± 0.2
303.15 K, x1 = 0.1599	823 ± 0.2	1.56 ± 0.19
303.15 K, x1 = 0.2396	844.6 ± 0.2	1.5 ± 0.18
303.15 K, x1 = 0.349	872.8 ± 0.2	1.47 ± 0.18
303.15 K, x1 = 0.4402	895.1 ± 0.2	1.48 ± 0.18
303.15 K, x1 = 0.5598	923 ± 0.2	1.58 ± 0.19
303.15 K, x1 = 0.6501	942.9 ± 0.3	1.7 ± 0.2
303.15 K, x1 = 0.74	961.9 ± 0.3	1.9 ± 0.23
303.15 K, x1 = 0.8499	984.2 ± 0.3	2.27 ± 0.27
303.15 K, x1 = 0.9402	1001.8 ± 0.3	2.73 ± 0.33
303.15 K, x1 = 1	1013.2 ± 0.3	3.13 ± 0.38
308.15 K, x1 = 0.0813	796.4 ± 0.2	1.454 ± 0.17
308.15 K, x1 = 0.1599	818.5 ± 0.2	1.39 ± 0.17
308.15 K, x1 = 0.2396	840 ± 0.2	1.34 ± 0.16
308.15 K, x1 = 0.349	868.2 ± 0.2	1.3 ± 0.16
308.15 K, x1 = 0.4402	890.6 ± 0.2	1.3 ± 0.16
308.15 K, x1 = 0.5598	918.5 ± 0.2	1.36 ± 0.16
308.15 K, x1 = 0.6501	938.5 ± 0.3	1.48 ± 0.18
308.15 K, x1 = 0.74	957.6 ± 0.3	1.67 ± 0.2
308.15 K, x1 = 0.8499	980 ± 0.3	1.99 ± 0.24
308.15 K, x1 = 0.9402	997.7 ± 0.3	2.39 ± 0.29
308.15 K, x1 = 1	1009 ± 0.3	2.75 ± 0.33
313.15 K, x1 = 0.0813	791.9 ± 0.2	1.29 ± 0.16
313.15 K, x1 = 0.1599	814 ± 0.2	1.23 ± 0.15
313.15 K, x1 = 0.2396	835.5 ± 0.2	1.18 ± 0.14
313.15 K, x1 = 0.349	863.6 ± 0.2	1.15 ± 0.14
313.15 K, x1 = 0.4402	885.9 ± 0.2	1.14 ± 0.14
313.15 K, x1 = 0.5598	913.8 ± 0.3	1.2 ± 0.14
313.15 K, x1 = 0.6501	933.9 ± 0.3	1.3 ± 0.16
313.15 K, x1 = 0.74	953.1 ± 0.3	1.48 ± 0.18
313.15 K, x1 = 0.8499	975.6 ± 0.3	1.79 ± 0.22
313.15 K, x1 = 0.9402	993.3 ± 0.3	2.13 ± 0.26
313.15 K, x1 = 1	1004.7 ± 0.3	2.43 ± 0.29
318.15 K, x1 = 0.0813	787.2 ± 0.2	1.125 ± 0.14
318.15 K, x1 = 0.1599	809.2 ± 0.2	1.076 ± 0.13
318.15 K, x1 = 0.2396	830.7 ± 0.2	1.043 ± 0.12
318.15 K, x1 = 0.349	858.9 ± 0.2	1.02 ± 0.12
318.15 K, x1 = 0.4402	881.2 ± 0.2	1.03 ± 0.12
318.15 K, x1 = 0.5598	909.2 ± 0.3	1.08 ± 0.13
318.15 K, x1 = 0.6501	929.2 ± 0.3	1.166 ± 0.14
318.15 K, x1 = 0.74	948.5 ± 0.3	1.34 ± 0.16
318.15 K, x1 = 0.8499	971.1 ± 0.3	1.6 ± 0.19
318.15 K, x1 = 0.9402	988.9 ± 0.3	1.9 ± 0.23
318.15 K, x1 = 1	1000.4 ± 0.3	2.14 ± 0.26
323.15 K, x1 = 0.0813	782.4 ± 0.2	0.97 ± 0.12
323.15 K, x1 = 0.1599	804.3 ± 0.2	0.91 ± 0.11
323.15 K, x1 = 0.2396	825.7 ± 0.2	0.88 ± 0.11
323.15 K, x1 = 0.349	853.8 ± 0.2	0.85 ± 0.1
323.15 K, x1 = 0.4402	876.2 ± 0.2	0.86 ± 0.1
323.15 K, x1 = 0.5598	904.1 ± 0.3	0.91 ± 0.11
323.15 K, x1 = 0.6501	924.2 ± 0.3	1.01 ± 0.12
323.15 K, x1 = 0.74	943.4 ± 0.3	1.18 ± 0.14
323.15 K, x1 = 0.8499	966.1 ± 0.3	1.45 ± 0.17
323.15 K, x1 = 0.9402	984 ± 0.3	1.74 ± 0.21
323.15 K, x1 = 1	995.5 ± 0.3	1.96 ± 0.24
